Assay results: paper PMC6130518, “Investigation of the effective components of the flowers of Trollius chinensis from the perspectives of intestinal bacterial transformation and intestinal absorption” (Pharmaceutical Biology, 2017)

Key:
[1] = test system: activated intestinal bacteria; test: Intestinal bacterial transformation of AEOF; assay type: in vitro ADME, human; settings: for After transformed by intestinal bacteria / Before transformed by intestinal bacteria: content in the extract; for transformation by intestinal bacteria (in words): in AEOF 15.0, 30.0, 60.0 mg/mL, up to 72 h, single person derived- or multiple people-derived intestinal bacteria; for time in which completely transformed by intestinal bacteria: in AEOF, isoquercetin to quercetin, trollioside to proglobeflowery acid
Method: Each 3 g of fresh feces from 3 healthy men and 3 healthy women of 23–25 years old was suspended in 200 mL of general anaerobic medium (GAM, including L-cystine hydrochloride, soluble starch, pepsin, tryptone, peptone, soy peptone, serum powder, yeast extract, beef extract, and beef liver extract powder purchased from Beijing Aoboxing Biotechnology Co., Ltd, Beijing, China) broth prepared as per a literature (Yang & Xu [2011]), respectively, and cultured in an anaerobic incubator (Shanghai Cimomedical Appliance Co., Ltd., Shanghai, China) at 37 °C for 24 h (Tsuchihashi et al. [2009]). […] Each 100 μL of the activated intestinal bacteria from the 6 volunteers were added into 11.4 mL of GAM, mixed adequately, and incubated in the same conditions as previously to obtain the mixture of activated intestinal bacteria. About 0.4513, 0.9026, and 1.8052 g of AEOF were dissolved in 30 mL of GAM on a super clean bench (Beijing Great Wall Air Purification Co. Ltd., Beijing, China), respectively, to generate the experimental groups. Then, the triplicate GAM containing AEOF was divided into 24 screw-cap test tubes, and each screw-cap test tube had 3 mL of the GAM and 100 μL of the activated intestinal bacteria and the mixture of activated intestinal bacteria, respectively. They were incubated under the same condition, and the test tubes of each concentration in triplicate were removed from the anaerobic incubator at 0, 2, 4, 6, 12, 24, 48, and 72 h. About 100 μL of the bacterial suspension was replaced with GAM to obtain the control group. The GAM absent of the AEOF was used as the blank group. […] About 300 μL of the supernatant was collected, filtered through a 0.45 μm membrane filter, and stored at −20 °C before HPLC analysis.
The HPLC analysis was performed using a Waters 1500 series (Waters Business Operations, Milford, MA) equipped with a 1525 binary HPLC pump, an on-line degasser, a manual injector and a 2489 UV/Visible detector. […] The temperature was set at 35 °C and the UV detecting wavelengths were 254 and 365 nm. The mobile phase consisted of acetonitrile (HPLC grade, Fisher Co., Pittsburgh, PA) (A) and 1.0% acetic acid (Beijing Chemical Works, Beijing, China) in purified water (v/v) (B), and the gradient elution program was as follows: 5–10% A (0–5 min), 10–20% A (5–10 min), 20–25% A (10–22 min), 25–40% A (22–35 min), 40–50% A (35–40 min), and 50–5% A (40–42 min) at a flow rate of 1.0 mL/min. The volume injected was 5 μL.

[2] = test system: Caco-2 cell monolayers; test: Transport experiment with Caco-2 cell monolayers; settings: intestinal bacterial transformed AEOF
Method: (§1) The Caco-2 cells were cultured in the culture medium consisting of Dulbecco’s Modified Eagle Medium (DMEM, Gibco Inc., Grand Island, CA)-fetal bovine serum (FBS, Gibco Inc., Grand Island, CA)-nonessential amino acids (NEAA, Corning Costar, Cambridge, MA)-‘penicillin-streptomycin’ (Corning Costar, Cambridge, MA) (100:10:1:1, v/v/v/v) in 25 cm^2 flasks, which were incubated in 5% CO2 and constant temperature (37 °C) and humidity in the incubator. The culture medium was replaced every 2 or 3 days, and the cells were split 1:2 or 1:3 to conduct passage when they reached 80% confluence.
(§2) About 1.5 mL of the culture medium was added into the basal (BL) side of each well of the 12-well Transwell plates (insert diameter 12 mm, pore size 3.0 μm, membrane growth area 1.12 cm^2, Corning Costar, Cambridge, MA), and 0.5 mL of the Caco-2 cell suspension at the density of 2.0 × 10^5 cells/mL was seeded into the apical (AP) side of each insert. The cells were incubated in 5% CO2 and constant temperature (37 °C) and humidity in the incubator. The culture medium in both AP and BL sides was replaced every other day in the first week, then that in AP side was replaced every day and that in BL side was replaced every other day. The cells would differentiate and form a confluent monolayer. The integrity and viability of the cell monolayers were evaluated by measuring transepithelial electrical resistance (TEER) values in the culture medium at 37 °C using a Millicell®-ERS system (Millipore Corp., Bedford, MA), and only the inserts with the TEER above 600 Ω/cm^2 on day 21 were selected to perform the transport experiment.
(§3) About 200 μL of the solution in the receiving chambers was collected at 30, 60, 90, 120, 150, and 180 min, respectively, and then the same volume of HBSS was added. All samples were stored at −20 °C and filtered through a 0.45 μm membrane filter for HPLC analysis.
(§4) The HPLC conditions used for the analysis of the intestinal bacterial transformed AEOF before and after transport experiment was the same as above.
(§5) The transport percentage (%) was calculated using the formula transport percentage (%) = dQ/(C0 × V) × 100, wherein, V (mL) represented the volume of the donor compartment.

[3] = test system: everted gut sacs (jejunum); test: Absorption experiment with everted gut sacs; settings: intestinal bacterial transformed AEOF
[4] = Transport experiment with Caco-2 cell monolayers; settings: human, Caco-2, apparent permeability coefficient (Papp), reference compounds, validation of Caco-2 monolayers
Method: as §1, §2, §3, §4, §5

[5] = first of three lines per compound (lowest extract concentration)
[6] = first of three lines per compound (lowest extract concentration; AEOF 15, 30, 60 mg/mL)
[7] = second of three lines per compound (middle extract concentration, not given)
[8] = third of three lines per compound (highest extract concentration, not given)
[9] = first of three lines per compound (lowest concentration; 10, 20, 30 mg/mL)
[10] = second of three lines per compound (middle concentration, not given)
[11] = third of three lines per compound (highest concentration, not given)

Papp at 180 min [4]	SMILES	After transformed by intestinal bacteria [1, 5]	Before transformed by intestinal bacteria [1, 6]	After transformed by intestinal bacteria [1, 7]	Before transformed by intestinal bacteria [1, 7]	After transformed by intestinal bacteria [1, 8]	Before transformed by intestinal bacteria [1, 8]	transformation by intestinal bacteria (in words) [1]	time in which completely transformed by intestinal bacteria [1]	After transported with Caco-2 cell monolayers [2, 9]	After transported with Caco-2 cell monolayers [2, 10]	After transported with Caco-2 cell monolayers [2, 11]	After transported with everted gut sacs [3, 9]	After transported with everted gut sacs [3, 10]	After transported with everted gut sacs [3, 11]
	O=c1c(O[C@@H]2O[C@H](CO)[C@@H](O)[C@H](O)[C@H]2O)c(-c2ccc(O)c(O)c2)oc2cc(O)cc(O)c12 [isoquercetin]	0.00 µg/mL	0.37 µg/mL	0.00 µg/mL	0.56 µg/mL	0.00 µg/mL	1.38 µg/mL	completely transformed	≤ 24 h	0.00 µg/mL	0.00 µg/mL	0.00 µg/mL	0.00 µg/mL	0.00 µg/mL	0.00 µg/mL
412 nm/s	CC(C)NCC(O)COc1cccc2ccccc12 (stereo not drawn) [propranolol, reference compound]														
	O=c1c(O)c(-c2ccc(O)c(O)c2)oc2cc(O)cc(O)c12 [quercetin]	2.12 µg/mL	1.56 µg/mL	4.02 µg/mL	3.25 µg/mL	8.45 µg/mL	7.38 µg/mL	not transformed		0.00 µg/mL	0.00 µg/mL	0.00 µg/mL	0.00 µg/mL	0.00 µg/mL	0.00 µg/mL
	COc1cc(C(=O)O)cc(CC=C(C)C)c1OC1OC(CO)C(O)C(O)C1O (stereo not drawn) [trollioside]	0.00 µg/mL	5.62 µg/mL	0.00 µg/mL	12.76 µg/mL	0.00 µg/mL	26.84 µg/mL	completely transformed	≤ 24 h	0.00 µg/mL	0.00 µg/mL	0.00 µg/mL	0.00 µg/mL	0.00 µg/mL	0.00 µg/mL
